According to the supplement of paper PMC10307832:

What was measured:
Experiment in all cases: relative viability (nuclei count vs DMSO), 5 days (fraction); higher = more cells survive
[1] = compound: CC1(C)CCC(CN2CCN(c3ccc(C(=O)NS(=O)(=O)c4ccc(NCC5CCOCC5)c([N+](=O)[O-])c4)c(Oc4cnc5[nH]ccc5c4)c3)CC2)=C(c2ccc(Cl)cc2)C1 [Venetoclax] + Nc1ncn([C@H]2C[C@H](O)[C@@H](CO)O2)c(=O)n1 [Decitabine] (partner 2 µM)
In short: (§1)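 The day after seeding in 1536-well plates, lung cancer cell lines were treated by pin tool with a single drug, or with a fixed anchor-drug dose together with five library-drug doses (not always all listed) in √10 steps. After 5 days, a combined fix-and-stain solution (final 0.05% Triton X-100, 1% formaldehyde, 1 ug/ml Hoechst) was added. Nuclei counted on 4× images gave relative viability as treated counts over vehicle counts, reported as the median of duplicate plates.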

[2] = compound: CC1(C)CCC(CN2CCN(c3ccc(C(=O)NS(=O)(=O)c4ccc(NCC5CCOCC5)c([N+](=O)[O-])c4)c(Oc4cnc5[nH]ccc5c4)c3)CC2)=C(c2ccc(Cl)cc2)C1 [Venetoclax] + O=C(CCCCCCC(=O)Nc1ccccc1)NO [Vorinostat] (partner 1 µM)
In short: as §1

[3] = compound: Cn1cnc2c(F)c(Nc3ccc(Br)cc3Cl)c(C(=O)NOCCO)cc21 [Selumetinib] + CS(=O)(=O)CCNCc1ccc(-c2ccc3ncnc(Nc4ccc(OCc5cccc(F)c5)c(Cl)c4)c3c2)o1 [Lapatinib] (partner 2 µM)
In short: as §1

[4] = compound: Cn1cnc2c(F)c(Nc3ccc(Br)cc3Cl)c(C(=O)NOCCO)cc21 [Selumetinib] + Cc1nc(NC(=O)N2CCC[C@H]2C(N)=O)sc1-c1ccnc(C(C)(C)C(F)(F)F)c1 [Alpelisib] (partner 2 µM)
In short: as §1

Cell Line	relative viability ([1]; first compound 0.01 µM)	relative viability ([1]; first compound 0.03162 µM)	relative viability ([1]; first compound 0.1 µM)	relative viability ([1]; first compound 0.3162 µM)	relative viability ([1]; first compound 1 µM)	relative viability ([2]; first compound 0.01 µM)	relative viability ([2]; first compound 0.03162 µM)	relative viability ([2]; first compound 0.1 µM)	relative viability ([2]; first compound 0.3162 µM)	relative viability ([2]; first compound 1 µM)	relative viability ([3]; first compound 0.02 µM)	relative viability ([3]; first compound 0.06325 µM)	relative viability ([3]; first compound 0.2 µM)	relative viability ([3]; first compound 0.6325 µM)	relative viability ([4]; first compound 0.02 µM)	relative viability ([4]; first compound 0.06325 µM)	relative viability ([4]; first compound 0.2 µM)	relative viability ([4]; first compound 0.6325 µM)
NCI-H1755	0.737	0.754	0.714	0.739	0.713	0.751	0.801	0.774	0.739	0.741	0.971	0.953	0.91	0.998	0.896	0.845	0.783	0.856
NCI-H1793	0.301	0.58	0.521	0.45	0.49	0.685	0.958	0.703	0.801	0.623	0.827	0.581	0.503	0.504	0.786	0.646	0.41	0.452
NCI-H1915	0.23	0.279	0.258	0.258	0.258	0.49	0.533	0.478	0.54	0.512	1.06	0.93	0.831	0.682	1.02	0.936	0.692	0.49
NCI-H1944	0.478	0.447	0.492	0.481	0.407	0.606	0.586	0.442	0.608	0.498	0.812	0.666	0.63	0.634	0.71	0.677	0.594	0.52
NCI-H1975	0.358	0.371	0.414	0.393	0.43	0.692	0.678	0.743	0.688	0.72	0.856	0.65	0.794	0.674	0.643	0.511	0.413	0.37
NCI-H1993	0.505	0.673	0.541	0.621	0.552	0.747	1	0.714	0.728	0.615	0.931	0.762	0.887	0.706	0.681	0.584	0.769	0.702
NCI-H2009	0.441	0.41	0.345	0.352	0.358	0.746	0.729	0.758	0.714	0.681	0.786	0.567	0.596	0.375	0.99	0.713	0.519	0.486
NCI-H2023	0.218	0.23	0.23	0.237	0.234	0.749	0.708	0.73	0.631	0.587	0.893	0.692	0.747	0.766	0.592	0.429	0.471	0.547
NCI-H2085	0.549	0.59	0.582	0.566	0.565	0.713	0.807	0.795	0.817	0.765	0.75	0.706	0.713	0.68	0.884	0.742	0.796	0.873
NCI-H2087	0.316	0.335	0.267	0.23	0.29	0.606	0.824	0.881	0.799	0.953	0.86	0.87	0.56	0.441	0.777	0.65	0.515	0.306
NCI-H2126	0.579	0.616	0.601	0.56	0.548	0.848	0.798	0.687	0.774	0.699	0.714	0.671	0.7	0.667	0.679	0.675	0.58	0.532
NCI-H2170	0.442	0.46	0.431	0.451	0.473	0.685	0.763	0.682	0.804	0.742	0.265	0.267	0.274	0.247	0.763	0.828	0.736	0.658
NCI-H2347	0.616	0.59	0.651	0.662	0.738	0.574	0.753	0.461	0.593	0.591	0.795	0.706	0.574	0.436	0.832	0.613	0.445	0.387
NCI-H2405	0.763	0.683	0.74	0.717	0.633	0.944	1.27	1.03	1.07	0.889	1.05	0.852	0.644	0.591	0.737	0.472	0.427	0.277
NCI-H3122	0.349	0.419	0.378	0.373	0.432	1.11	0.881	0.802	0.916	0.885	0.882	0.805	0.801	0.754	0.551	0.492	0.353	0.366
PC-3 [JPC-3]	0.854	0.788	0.931	0.809	0.805	0.879	1.12	0.929	0.915	0.675	0.45	0.4	0.415	0.45	1.02	0.935	0.9	0.752
PC-14	0.298	0.164	0.224	0.207	0.213	0.642	0.788	0.822	0.692	0.641	0.285	0.252	0.234	0.207	0.92	0.835	0.925	0.848
RERF-LC-KJ	0.69	0.73	0.69	0.666	0.611	0.587	0.701	0.682	0.686	0.718	0.768	0.885	0.828	0.811	0.858	0.772	0.693	0.636
SK-LU-1	0.568	0.738	0.639	0.609	0.549	0.771	0.803	0.755	0.745	0.719	0.964	0.773	0.751	0.479	1.01	0.988	0.838	0.542
SK-MES-1	0.305	0.428	0.367	0.404	0.391	1.01	1.1	1.06	1.08	0.966	0.432	0.401	0.361	0.371	0.851	0.587	0.56	0.396
SW 1573	0.526	0.553	0.572	0.475	0.437	0.712	0.656	0.643	0.692	0.572	1.19	1.01	1.04	0.788	0.868	0.707	0.618	0.552
